Experimental data from patent US6849256B1, “Inhibition of pathogens by probiotic bacteria” (priority 1999, dated 2005).

Legend:
[1] = test system: Bacillus coagulans, subspecies Hammer (ATCC-31284); assay: Kirby-Bauer antibiotic susceptibility testing of Bacillus coagulans; format: cell-based; details: inhibition zone diameter (disk diffusion)
[2] = test system: Bacillus coagulans, subspecies Hammer (ATCC-31284); assay: Vitek machine-based antibiotic susceptibility testing of Bacillus coagulans; format: cell-based

Row | Compound | Susceptibility of Bacillus coagulans to the antibiotic, Kirby-Bauer testing [1] | Susceptibility of Bacillus coagulans to the antibiotic, Vitek testing ([2]; optical density of culture) | other results
1 | CC1(C)S[C@@H]2[C@H](NC(=O)[C@H](N)c3ccccc3)C(=O)N2[C@H]1C(=O)O [ampicillin] | Susceptible | – | –
2 | O=C(N[C@H](CO)[C@H](O)c1ccc([N+](=O)[O-])cc1)C(Cl)Cl [chloramphenicol] | – | Susceptible | –
3 | O=C(O)c1cn(C2CC2)c2cc(N3CCNCC3)c(F)cc2c1=O [ciprofloxacin] | Susceptible | – | –
4 | CC[C@H]1OC(=O)[C@H](C)[C@@H](O[C@H]2C[C@@](C)(OC)[C@@H](O)[C@H](C)O2)[C@H](C)[C@@H](O[C@@H]2O[C@H](C)C[C@H](N(C)C)[C@H]2O)[C@](C)(O)C[C@@H](C)C(=O)[C@H](C)[C@@H](O)[C@]1(C)O [erythromycin] | Susceptible | – | –
5 | CCn1cc(C(=O)O)c(=O)c2cc(F)c(N3CCNCC3)cc21 [norfloxacin] | – | Susceptible | –
6 | Cc1onc(-c2ccccc2)c1C(=O)N[C@@H]1C(=O)N2[C@@H]1SC(C)(C)[C@@H]2C(=O)O [oxacillin] | Susceptible | – | –
7 | CO[C@H]1/C=C/O[C@@]2(C)Oc3c(C)c(O)c4c(O)c(c(/C=N/N5CCN(C)CC5)c(O)c4c3C2=O)NC(=O)/C(C)=C\C=C\[C@H](C)[C@H](O)[C@@H](C)[C@@H](O)[C@@H](C)[C@H](OC(C)=O)[C@@H]1C [rifampin] | Susceptible | – | –
8 | [H]/N=C(/N)N[C@H]1[C@H](O)[C@@H](O)[C@H](O[C@@H]2O[C@@H](C)[C@](O)(C=O)[C@H]2O[C@@H]2O[C@@H](CO)[C@H](O)[C@@H](O)[C@@H]2NC)[C@@H](N/C(N)=N\[H])[C@@H]1O [streptomycin] | – | – | Susceptibility of Bacillus coagulans to the antibiotic, Vitek testing ([2]; 2,000 μg/ml): Susceptible
9 | CN[C@H](CC(C)C)C(=O)N[C@H]1C(=O)N[C@@H](CC(N)=O)C(=O)N[C@H]2C(=O)N[C@H]3C(=O)N[C@H](C(=O)N[C@H](C(=O)O)c4cc(O)cc(O)c4-c4cc3ccc4O)[C@H](O)c3ccc(c(Cl)c3)Oc3cc2cc(c3O[C@@H]2O[C@H](CO)[C@@H](O)[C@H](O)[C@H]2O[C@H]2C[C@](C)(N)[C@H](O)[C@H](C)O2)Oc2ccc(cc2Cl)[C@H]1O [vancomycin] | Susceptible | Susceptible | –
10 | gentamicin | Susceptible | – | Susceptibility of Bacillus coagulans to the antibiotic, Vitek testing ([2]; 500 μg/ml): Susceptible
11 | penicillin | – | Susceptible | –
12 | trimethoprim-sulfamethoxazole | Susceptible | – | –
